Experimental findings from patent publication US9376438B2, “Pyrazolopyrimidine derivatives as tyrosine kinase inhibitors” (Principia Biopharma, Inc., priority 2011, dated 2016) are described below.

The term IC50 denotes the concentration that inhibits the measured activity by half.

Each structure is given as a SMILES string.

human recombinant Btk, sequence (Q06187 whole entry): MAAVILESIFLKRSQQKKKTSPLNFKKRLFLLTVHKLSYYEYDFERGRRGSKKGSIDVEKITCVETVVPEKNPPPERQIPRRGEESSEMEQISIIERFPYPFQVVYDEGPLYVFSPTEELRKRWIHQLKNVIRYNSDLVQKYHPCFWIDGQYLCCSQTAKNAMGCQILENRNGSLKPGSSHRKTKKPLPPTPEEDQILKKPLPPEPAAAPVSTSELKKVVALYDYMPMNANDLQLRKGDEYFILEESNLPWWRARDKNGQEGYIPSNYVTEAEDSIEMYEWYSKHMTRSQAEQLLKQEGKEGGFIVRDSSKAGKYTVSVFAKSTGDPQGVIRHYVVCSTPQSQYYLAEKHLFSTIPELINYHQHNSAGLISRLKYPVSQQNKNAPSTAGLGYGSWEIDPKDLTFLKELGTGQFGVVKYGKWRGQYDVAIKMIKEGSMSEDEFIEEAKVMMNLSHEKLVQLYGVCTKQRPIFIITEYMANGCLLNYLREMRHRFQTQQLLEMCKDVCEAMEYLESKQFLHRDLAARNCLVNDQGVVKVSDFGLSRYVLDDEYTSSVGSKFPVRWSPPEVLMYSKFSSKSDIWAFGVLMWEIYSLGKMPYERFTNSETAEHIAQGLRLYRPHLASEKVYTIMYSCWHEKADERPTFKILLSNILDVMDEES

This test deals with human recombinant Btk (Homo sapiens, UniProt Q06187). Briefly: Btk Enzymatic Activity Assay (Caliper-based kinase assay). The test is classed as biochemical. As to conditions: human recombinant Btk 2 nM, ATP 40 μM, peptide substrate 1 μM, room temperature, 3 h; read-out: IC50 (inhibition of Btk kinase activity). As to the method:
A Caliper-based kinase assay (Caliper Life Sciences, Hopkinton, Mass.) was used to measure inhibition of Btk kinase activity of a compound of Formula (I). Serial dilutions of test compounds were incubated with human recombinant Btk (2 nM), ATP (40 μM) and a phosphoacceptor peptide substrate FAM-GEEPLYWSFPAKKK-NH2 (1 μM) at room temperature for 3 h. The reaction was then terminated with EDTA, final concentration 20 mM and the phosphorylated reaction product was quantified on a Caliper Desktop Profiler (Caliper LabChip 3000). Percent inhibition was calculated for each compound dilution and the concentration that produced 50% inhibition was calculated. This value is presented as the IC50.
For the molecule `Nc1ncnc2c1c(-c1ccc(Oc3ccccc3)cc1)nn2C[C@H]1CCCN1C(=O)C(=CC1CC1)C(F)(F)F` [Example 2, (R)-1-(2-((4-amino-3-(4-phenoxyphenyl)-1H-pyrazolo[3,4-d]pyrimidin-1-yl)methyl)pyrrolidin-1-yl)-3-cyclopropyl-2-(trifluoromethyl)prop-2-en-1-one], the IC50 came to 41 nM.

For `Nc1ncnc2c1c(-c1ccc(Oc3ccccc3)cc1)nn2C[C@H]1CCCN1C(=O)C(F)=CC1CC1` [Example 1, (R)-1-(2-((4-amino-3-(4-phenoxyphenyl)-1H-pyrazolo[3,4-d]pyrimidin-1-yl)methyl)pyrrolidin-1-yl)-3-cyclopropyl-2-fluoroprop-2-en-1-one], the IC50 was 203 nM. The figure for `Nc1ncnc2c1c(-c1ccc(Oc3ccccc3)cc1)nn2CCCN1C(=O)SC(=CC2CC2)C1=O` [Example 3, 3-(3-(4-amino-3-(4-phenoxyphenyl)-1H-pyrazolo[3,4-d]pyrimidin-1-yl)propyl)-5-(cyclopropylmethylene)thiazolidine-2,4-dione] is 23 nM; for `Nc1ncnc2c1c(-c1ccc(Oc3ccccc3)cc1)nn2CCN1C(=O)SC(=Cc2ccccc2)C1=O` [Example 4, 3-(2-(4-amino-3-(4-phenoxyphenyl)-1H-pyrazolo[3,4-d]pyrimidin-1-yl)ethyl)-5-benzylidenethiazolidine-2,4-dione] it is 860 nM; for `Nc1ncnc2c1c(-c1ccc(Oc3ccccc3)cc1)nn2CCN1C(=O)SC(=CC2CC2)C1=O` [Example 5, 3-(2-(4-amino-3-(4-phenoxyphenyl)-1H-pyrazolo[3,4-d]pyrimidin-1-yl)ethyl)-5-(cyclopropylmethylene)thiazolidine-2,4-dione] it is 49 nM.
